Laboratory results as given in PMC8608967, “KDS2010, a Newly Developed Reversible MAO-B Inhibitor, as an Effective Therapeutic Candidate for Parkinson’s Disease” (Neurotherapeutics, 2021).

Key:
[1] = tested on: 6-OHDA model rats; assay: 6-OHDA rat model: stepping test, rotarod test, TH; conditions: 6-OHDA rats; 10 mg/kg/day for 15 days starting 17 days post-6-OHDA
Protocol: (§1) Group allocation and outcome assessment, but not the conduct of experiments and data analysis, were performed in a blinded manner. Throughout the study, confounders were not controlled. An acclimation period of 7 days was allowed for animals to stabilize in a new environment before model induction. […] Treatment drugs were dissolved in 100 μL of water and total dose (in mg) was calculated according to individual body weight (in kg). […] An experiment was halted if body weight decreased by 20% or more after MPTP or 6-hydroxydopamine (6-OHDA) treatment.
Finally, the 6-OHDA model was prepared as previously described [21]. Under general anesthesia, all rats received unilateral injections of 8 μg 6-OHDA (Sigma Aldrich) in 4 μL saline/0.1% ascorbic acid into the right medial forebrain bundle (AP − 2.2 mm and L + 1.5 mm relative to the bregma, V − 8.0 mm from the dura) [19], with the tooth bar set at + 4.5 mm.
Motor deficits of 6-OHDA and A53T mutant α-synuclein model rats were assessed as previously described with slight modifications [27]. Briefly, both hind limbs and one forelimb were firmly fixed in the two hands of the experimenter, and the rat was lowered over a treadmill moving at rate of 18 cm/s such that the body remained stationary while the free forelimb was allowed to spontaneously touch the moving treadmill track for 10 s. All experimental sessions were video recorded to count the number of adjusting steps taken in the backward direction. The number of adjusting steps was averaged across four trials in each session.
In addition, impaired motor coordination of 6-OHDA model rats was examined using the rotarod test as previously described with slight modifications [28]. […] Before the first rotarod test, all rats were pre-trained until riding time reached 60 s at 10 rpm (B.S Technolab, Seoul, Korea). Each session consisted of two trials, and riding time was averaged to obtain pre-6-OHDA, 0d, 7d, and 15d results.

[2] = tested on: MPTP-induced PD mouse model; assay: MPTP mouse model: vertical grid test and coat hanger test; assay type: in vivo; conditions: MPTP mice; long-term (30-day) treatment, 10 mg/kg/day oral
Protocol: Group allocation and outcome assessment, but not the conduct of experiments and data analysis, were performed in a blinded manner. Throughout the study, confounders were not controlled. An acclimation period of 7 days was allowed for animals to stabilize in a new environment before model induction. […] Treatment drugs were dissolved in 100 μL of water and total dose (in mg) was calculated according to individual body weight (in kg).
The MPTP model was established using the acute regimen of four intraperitoneal (i.p.) injections of MPTP-HCl (M0896, Sigma Aldrich, 2 mg/mL in saline, 20 mg/kg for one injection) at 2-h intervals.
Motor deficits of the MPTP-induced PD mouse model were assessed using the vertical grid test as described in the previous study [23]. Briefly, after 2 days of habituation to the testing apparatus, individual mice were gently placed 3 cm from the top, facing upward, and allowed to turn around and climb down. We also performed a coat hanger test as described [24–26]. Briefly, a mouse was gently hung on the middle of a coat hanger and allowed to ascend to the top. Performance was graded as follows: 0, falling off the hanger within 20 s; 1, moving to the side-bar of the hanger; 2, reaching the side-bar of the hanger; 3, climbing the side-bar of the hanger; 4, moving to the top of the hanger; 5, climbing and reaching the safe zone. The test was performed twice and each trial lasted a maximum of 3 min.

[3] = tested on: MPTP-induced PD mouse model; assay: MPTP mouse model: TH (DAB) and Nissl staining of SNpc and striatum; conditions: MPTP mice; long-term treatment, 29 days before MPTP and one more day after, 10 mg/kg/day oral; 10 mg/kg/day
Protocol: as §1
The MPTP model was established using the acute regimen of four intraperitoneal (i.p.) injections of MPTP-HCl (M0896, Sigma Aldrich, 2 mg/mL in saline, 20 mg/kg for one injection) at 2-h intervals. All MPTP use and safety precautions were strictly followed as described [18].
Coronal sections for striatum and SNpc were prepared at 30-μm thickness and immunostained using a DAB staining kit (TL-060-QHD, Thermo, MA, USA). […] After washing in PBS 3 times, sections were incubated in Primary Antibody Amplifier Quanto (TA-060-QPB, Thermo) for 5 min, washed again in PBS, incubated in HRP Polymer Quanto for 1 h, washed 4 times in PBS, and dipped for 30 s in a 1:10 mixture of DAB + chromogen and DAB + substrate buffer (K3468, Dako, Denmark). Finally, sections were washed, immersed in mounting medium, and dried.
Every 6th section including the SN was stained with anti-TH and the number of TH-positive neurons counted under low magnification (× 10) from the rostral tip of the SNpc to the caudal end of the substantia nigra pars reticulate (SNpr). […] The total number of neurons per section was estimated according to the optical fractionator formula. The total number of SNpc neurons in a hemisphere was then obtained by multiplying the number counted using Stereo Investigator 11 by the slice interval (six).
Other 30-μm-thick coronal sections from the SNpc were Nissl stained to assess viable cell number. Briefly, slices were stained with 0.1% cresyl violet solution for 3 min, rinsed with distilled water, and placed in a chamber filled with 70% ethanol for 1 min. […] A series of bright field images were obtained using an Olympus microscope. The slices were classified according to AP coordinates and Nissl-positive neurons counted using the counting tool of ImageJ (NIH, MD, USA).

[4] = H2O2 scavenging capacity test (Amplex red/HRP); conditions: 10 min incubation with H2O2 at RT
Protocol: To determine the H2O2 scavenging capacity of the test compound, H2O2 concentration was measured using the modified Amplex red/horseradish peroxidase (HRP) detection method as described previously. Briefly, a H2O2 solution was incubated with the test compound for 10 min at room temperature (RT), and then the reaction solution containing 20 mM Amplex red and 200 U/mL HRP was added. The absorbance was measured at 570 nm using a microplate reader. The H2O2 scavenging capacities were compared to a blank negative control and to the known H2O2 scavenger epigallocatechin gallate (EGCG) as a positive control.

Compound	stepping test: stepping behavior deficit of the contralateral forepaw [1]	vertical grid test: time to turn [2]	vertical grid test: total time [2]	loss of TH-positive cells in the SNpc [3]	H2O2 scavenging effect [4]
C#CCN(C)[C@H](C)Cc1ccccc1 [selegiline, reference compound]	did not improve	reduced	reduced	non-significant increasing tendency	
epigallocatechin-3-gallate [EGCG, reference compound]					dose-dependent effect of H2O2 scavenging
